Consider 6 compounds from paper PMC3492916 (Molecular Nutrition & Food Research, 2011).

“Also recorded” adds a separate entry of the source.

For one data set, the target named is P-glycoprotein (Sus scrofa, UniProt K7GMM7). Kind of data set: Active transport study with inhibitor PSC 833. It is filed as in vitro ADME, porcine.
The test system of data set [1] is PBCEC monolayers. Kind of data set: Active transport study, equal concentrations in both compartments. The note with it: for Enrichment of substance concentration in one compartment: ET 10 μM, EC 1 μM a/b, over 48 h.
The target in another data set is T1, BCRP/ABCG2 (Sus scrofa, UniProt Q8MIB3).
T1 sequence (Q8MIB3 1-656): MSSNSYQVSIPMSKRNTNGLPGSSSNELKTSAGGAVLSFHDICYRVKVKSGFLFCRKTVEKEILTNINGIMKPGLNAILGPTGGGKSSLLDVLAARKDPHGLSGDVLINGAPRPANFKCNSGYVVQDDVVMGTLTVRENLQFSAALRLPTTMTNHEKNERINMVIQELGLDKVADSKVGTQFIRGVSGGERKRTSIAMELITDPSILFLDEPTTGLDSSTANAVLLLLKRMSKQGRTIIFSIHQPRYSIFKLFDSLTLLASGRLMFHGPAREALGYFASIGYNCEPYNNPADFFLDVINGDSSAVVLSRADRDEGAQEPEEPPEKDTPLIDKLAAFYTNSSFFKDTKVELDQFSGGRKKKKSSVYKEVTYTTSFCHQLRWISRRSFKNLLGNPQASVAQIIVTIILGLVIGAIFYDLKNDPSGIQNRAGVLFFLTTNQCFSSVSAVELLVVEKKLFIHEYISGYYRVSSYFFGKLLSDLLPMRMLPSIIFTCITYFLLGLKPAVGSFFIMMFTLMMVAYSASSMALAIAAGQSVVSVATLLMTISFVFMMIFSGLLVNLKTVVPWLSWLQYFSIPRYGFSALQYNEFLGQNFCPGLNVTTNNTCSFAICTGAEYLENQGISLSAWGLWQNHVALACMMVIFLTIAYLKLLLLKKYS
Kind of data set: Active transport study with inhibitor Fumitremorgin C. It is filed as in vitro ADME, porcine.

For data set [2], the system named is PBCEC. Kind of data set: Cytotoxicity. Type of data set: cell-based, porcine. The note with it: 24 h; for Impact on cell viability (CCK-8 assay): up to a concentration of 20 mM (so in the source), with corresponding -inine form. (In general: Tetrazolium assays rely on reduction of a dye to a coloured formazan, in cell work by metabolically active cells.)
A further data set concerns Pgp. The note with it: cited from earlier work.
A short description of data set [3]: Permeability across PBCEC monolayers on Transwell filters. The settings on record: pig.
For data set [4], the system named is PBCEC monolayers. The description is as above. The note with it: apical addition; for Time of maximum of permeation into basolateral compartment / Maximum of permeation into basolateral compartment: EM and ET 10 μM, EC 1 μM; for Maximum of permeation into basolateral compartment: t = 0 h as 100%.
A further data set concerns PBCEC monolayer. Kind of data set: TEER measurement. It is filed as cell-based, porcine. The note with it: for Influence on barrier integrity (TEER): 10 μM (a) or 10 μM (a/b), in comparison to the control.
Data set [5] can be described thus: Active transport study, equal concentrations in both compartments. The note with it: pig, PBCEC monolayers.
The subject of data set [6] is PBCEC. Kind of data set: Fluorescence microscopy of occludin and cell nuclei. The settings on record: 10 μM a/b, 24 h. It is filed as cell-based, porcine.
The conditions of data set [7]: cited from earlier work.
For a further data set, the system named is Caco-2. The note with it: Caco-2 model, after 6 h; cited from earlier work.
The mark [8] stands for this setting: 10 μM inhibitor a/b, preincubated 1 h, EM 10 μM a/b.

Chain of P-glycoprotein (K7GMM7 1-1248): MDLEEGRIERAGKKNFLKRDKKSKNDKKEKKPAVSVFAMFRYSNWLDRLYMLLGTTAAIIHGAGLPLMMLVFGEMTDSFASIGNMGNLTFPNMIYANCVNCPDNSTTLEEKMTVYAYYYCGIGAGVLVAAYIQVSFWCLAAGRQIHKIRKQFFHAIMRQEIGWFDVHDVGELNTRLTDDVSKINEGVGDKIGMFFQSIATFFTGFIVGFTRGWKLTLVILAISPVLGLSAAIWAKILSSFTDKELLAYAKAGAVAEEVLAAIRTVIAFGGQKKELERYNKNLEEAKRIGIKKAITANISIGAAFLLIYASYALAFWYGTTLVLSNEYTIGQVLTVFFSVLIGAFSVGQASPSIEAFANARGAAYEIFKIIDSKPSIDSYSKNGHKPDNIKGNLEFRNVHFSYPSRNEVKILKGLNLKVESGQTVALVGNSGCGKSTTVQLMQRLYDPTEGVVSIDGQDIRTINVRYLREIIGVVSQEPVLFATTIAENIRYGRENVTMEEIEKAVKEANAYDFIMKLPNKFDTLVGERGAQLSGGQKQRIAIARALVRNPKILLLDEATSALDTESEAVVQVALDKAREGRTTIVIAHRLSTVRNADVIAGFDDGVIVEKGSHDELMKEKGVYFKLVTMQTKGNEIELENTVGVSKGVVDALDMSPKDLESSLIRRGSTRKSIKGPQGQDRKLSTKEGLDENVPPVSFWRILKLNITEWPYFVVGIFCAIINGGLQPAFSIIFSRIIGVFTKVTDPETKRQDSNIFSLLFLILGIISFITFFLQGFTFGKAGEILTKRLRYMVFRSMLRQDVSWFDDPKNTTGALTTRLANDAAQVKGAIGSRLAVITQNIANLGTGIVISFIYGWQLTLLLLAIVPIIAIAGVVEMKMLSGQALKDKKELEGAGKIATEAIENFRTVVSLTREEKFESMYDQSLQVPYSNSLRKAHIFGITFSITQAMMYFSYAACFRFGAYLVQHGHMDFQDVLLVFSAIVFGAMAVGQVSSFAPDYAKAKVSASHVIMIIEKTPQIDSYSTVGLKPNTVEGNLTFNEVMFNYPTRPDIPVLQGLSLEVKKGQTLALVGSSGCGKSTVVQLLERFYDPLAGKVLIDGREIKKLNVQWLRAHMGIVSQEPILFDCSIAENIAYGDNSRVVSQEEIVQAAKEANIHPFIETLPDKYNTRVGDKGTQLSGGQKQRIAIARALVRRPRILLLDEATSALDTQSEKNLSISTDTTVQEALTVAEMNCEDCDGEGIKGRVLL

For the compound `C/C=C/C[C@@H](C)C(=O)[C@H]1C(=O)N[C@@H](C(C)C)C(=O)N(C)CC(=O)N(C)[C@@H](CC(C)C)C(=O)N[C@@H](C(C)C)C(=O)N(C)[C@@H](CC(C)C)C(=O)N[C@@H](C)C(=O)N[C@H](C)C(=O)N(C)[C@@H](CC(C)C)C(=O)N(C)[C@@H](CC(C)C)C(=O)N(C)[C@@H](C(C)C)C(=O)N1C` [PSC, PSC 833], the “Influence of inhibitor on the transport of EM” value at P-glycoprotein (setting [8]) is reported as “lagging of enrichment in the apical compartment”.

Usually Papp A→B stands for how fast a substance crosses the layer from the apical side. The term Papp B→A denotes the apparent permeability from the basolateral to the apical side of a cell layer. On to `C[C@@H](CO)NC(=O)[C@@H]1C=C2c3cccc4[nH]cc(c34)C[C@H]2N(C)C1` [EM, ergometrine], for which the “Concentration in apical compartment, % of the initial concentration” value in the data set with PBCEC monolayers [1] (10 μM a/b, after 24 h) is “about 117%”. The “Total enrichment in apical compartment” value in the data set on PBCEC monolayers [1] (10 μM a/b, after 48 h) amounted to 130%. Also, the “Substance in cell lysate” value in the data set on PBCEC monolayers [1] (10 μM a/b, during the whole experiment (48 h)) is “no EM was detectable in cell lysate”. The Transporter substrate property entry at BCRP/ABCG2 (concluded from total inhibition by FTC) is “substrate for BCRP/ABCG2 transporter”. In addition, the “Impact on cell viability (CCK-8 assay)” value in the data set on PBCEC [2] is recorded as “no impact”. Further, the Pgp inhibition entry in the data set on Pgp is listed as “Pgp inhibitors”. In data set [3], the Papp A→B was found to be 10.5 nm/s and the basolateral-to-apical permeability (Papp B→A) is 60.5 nm/s. Moreover, in the data set with PBCEC monolayers [4] (10 μM), the “Time before which first traces were not detectable in basolateral compartment” value is not below 6 h. For the same compound, in the data set on PBCEC monolayers [4], the “Time of maximum of permeation into basolateral compartment” value is 24 h and the “Maximum of permeation into basolateral compartment” value is recorded as 29%. In addition, in the data set with PBCEC monolayer (1 μM (a), 24 h), the “Influence on barrier integrity (TEER)” value is on record as “No influence; also recorded: no impact on barrier integrity”. For the same compound, the “Concentration in apical compartment, % of the initial concentration” value on P-glycoprotein (EM 10 μM a/b with PSC 833 10 μM a/b, after 48 h) worked out at 110%.

The compound `CC(C)[C@@]1(NC(=O)[C@@H]2C=C3c4cccc5[nH]cc(c45)C[C@H]3N(C)C2)O[C@@]2(O)[C@@H]3CCCN3C(=O)[C@H](Cc3ccccc3)N2C1=O` [EC, ergocristine] yielded a recovery at 48 h, 1 µM in data set [5] of 60%. Besides, the “Enrichment of substance concentration in one compartment” value in the data set with PBCEC monolayers [1] is recorded as “no enrichment”. Also, the “Concentration at which significant differences in cell viability start” value in the data set with PBCEC [2] (CCK-8) amounted to 5 µM. In addition, in the data set on PBCEC [2] (CCK-8, Figure 2 legend), the “Concentration at which significant results in cell viability start” value was determined as 5000 µM. Further, the “Cell viability (CCK-8 assay)” value with PBCEC [2] (from 5 μM, in equilibrium with -inine form) is 85 % of the control. The compound further gave a Papp A→B in data set [3] of 205 nm/s. For the same compound, in data set [3], the Papp B→A was 261 nm/s. Further, the “Concentration in basolateral compartment” value in the data set on PBCEC monolayers [4] (1 μM, after 24 h) is 32%. Further, the “Time of maximum of permeation into basolateral compartment” value in the data set with PBCEC monolayers [4] is 6 h. Also, in the data set on PBCEC monolayers [4], the “Maximum of permeation into basolateral compartment” value was 49%. Besides, in the data set with PBCEC [6], the “Immunostaining of occludin and cell nuclei” value is listed as “disrupted cells could be visualized by the absence of nuclei”. Further, the “Effect on barrier integrity (TEER)” value with PBCEC monolayer (1 μM (a)) was “no effect”. The “TEER, % of initial TEER” value in the data set with PBCEC monolayer (1 μM (a/b)) and in the data set on PBCEC monolayer (5 μM (a)) was “about 80%” each time. Also, the “TEER, % of the starting value” with PBCEC monolayer (5 μM (a/b)), in the data set on PBCEC monolayer (5 μM (b)), in the data set on PBCEC monolayer (10 μM (a)) and with PBCEC monolayer (10 μM (b)) was 50–70% throughout. Moreover, in the data set with PBCEC monolayer (10 mM (so in the source) a/b, 24 h, samples of immunostaining, control >1000), the “TEER of incubated samples” value was < 200 Ωcm^2.

As usually defined, the efflux ratio is the permeability from basolateral to apical divided by that in the opposite direction, in the common usage. Consider `CN1C[C@H](C(=O)N[C@]2(C)O[C@@]3(O)[C@@H]4CCCN4C(=O)[C@H](Cc4ccccc4)N3C2=O)C=C2c3cccc4[nH]cc(c34)C[C@H]21` [ET, ergotamine], for which the “Detection in CSF” value in data set [7] (18 patients, different application methods) is listed as “no ergotamine in CSF”. Moreover, the Oral bioavailability entry in data set [7] (humans, peptide ergot alkaloids like ergotamine) was “less than 2%”. Moreover, in data set [7] (ten patients), the “Concentration in cerebrospinal fluid (CSF)” value was 0.4 ng/mL. For the same compound, the “Enrichment of substance concentration in one compartment” value with PBCEC monolayers [1] is recorded as “no enrichment”. In addition, the “Impact on cell viability (CCK-8 assay)” value with PBCEC [2] was “no impact”. In the data set on Pgp, the Pgp inhibition result is reported as “Pgp inhibitors”. In data set [3], the Papp A→B came out at 119 nm/s; the Papp B→A came out at 180 nm/s; the efflux ratio at 24 h, 10 μM is less than 2. In the data set with PBCEC monolayers [4], the “Time of maximum of permeation into basolateral compartment” value came out at 12 h and the “Maximum of permeation into basolateral compartment” value is on record as 40%. Besides, the “Influence on barrier integrity (TEER)” value in the data set with PBCEC monolayer (1 μM (a), 24 h) is reported as “No influence; also recorded: no impact on barrier integrity”.

For the compound `COc1ccc2c3c([nH]c2c1)[C@H](C=C(C)C)N1C(=O)[C@@H]2CCCN2C(=O)[C@@H]1C3` [FTC, Fumitremorgin C], the “Influence of inhibitor on the transport of EM” value at BCRP/ABCG2 (setting [8]) was “total inhibition of the transport process”.

As for ergovaline/ ergovalinine, the “Initial concentration reaching the other compartment” value in the data set with Caco-2 is given as 40%.
